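These data come from cells grown in 96-well plates and exposed to compound for 48 hours at five concentrations. TGI denotes the concentration required for complete inhibition of growth.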
Assays:
Test in all cases: DTP human tumour cell line panel, 48 h
[1] = test system: OVCAR-5 ovarian
[2] = test system: TK-10 renal
[3] = test system: 786-0 renal
[4] = test system: HCT-15 colon
[5] = test system: HS 578T breast
[6] = test system: KM12 colon
[7] = test system: PC-3 prostate
[8] = test system: SK-MEL-5 melanoma
[9] = test system: U251 CNS
[10] = test system: SR leukemia
[11] = test system: K-562 leukemia
[12] = test system: SK-OV-3 ovarian

Structure (SMILES)	TGI [1] [µM]	TGI [2] [µM]	TGI [3] [µM]	TGI [4] [µM]	TGI [5] [µM]	TGI [6] [µM]	TGI [7] [µM]	TGI [8] [µM]	TGI [9] [µM]	TGI [10] [µM]	TGI [11] [µM]	TGI [12] [µM]
CN(C(=O)C12C3C4C1C1C2C3C41C(=O)O)C(C)(C)C (stereo not drawn)	> 100	> 100	> 100	> 100	> 100	> 100	> 100	> 100	> 100	> 100	> 100	
COC1=C(OC)C(=O)c2cc(SC)c(=O)c(SC)cc2C1=O		> 100	35.2	> 100		> 100		25.9	38.7	22.7	33.3	> 100
C(=C\c1ccccc1)/Cn1nc(-c2ccccc2)nc1-c1cnccn1	> 100	> 100	> 100	> 100			> 100	> 100	> 100	> 100	> 100	> 100
COC(=O)CC[N+]1([O-])CC1	> 100	> 100	> 100	> 100	> 100	> 100		> 100	> 100	> 100		> 100
COc1ccc(-c2cc(-c3ccccc3)c3c(n2)-c2ccccc2NC(=O)C3)cc1	> 100	> 100	> 100	> 100	30.5	> 100	> 100	> 100	> 100		8.64	> 100
COc1cc2c(cc1C)NC(=O)/C2=C\c1cccnc1	31.8	31.7	> 100	> 100	96.6	35.6	> 100	33.5	> 100		> 100	43.9
COc1ccccc1-c1n[nH]c(-c2ccccc2O)n1	> 100	> 100	> 100	> 100	> 100	> 100	> 100	> 100	> 100		> 100	> 100
COc1cccc2c1C(=O)c1c(O)c3c(c(O)c1C2=O)CC(O)(C(C)=O)CC3OC1CC([N+](C)(C)C)C(O)C(C)O1 (stereo not drawn)	> 100	> 100	> 100	> 100		> 100		> 100	> 100	> 100	> 100	> 100
COC(=O)/C=C/COCC1C2CCC(=O)C21 (stereo not drawn)	> 100	> 100	> 100	> 100		> 100	> 100	> 100	> 100	> 100	> 100	> 100
O=S(=O)(O)c1cc(S(=O)(=O)O)c2c(N=Nc3ccccc3)c(O)ccc2c1	> 100	> 100	> 100	> 100	> 100	> 100	> 100	> 100	> 100		> 100	> 100
COC(=O)C1=C(C(=O)OC)C2(c3ccccc3)c3ccccc3C(=O)C1N2C1CCCCC1 (stereo not drawn)	> 100	> 100	> 100	> 100	> 100	> 100	> 100	> 100	> 100		> 100	> 100
COc1nc(N)nc2c1n(C)c[n+]2C	> 100	> 100	> 100	> 100	> 100	> 100	> 100	> 100	> 100		> 100	> 100
CCCCC1=C(C(=O)N2CCOCC2)C2(OCCO2)C1Cl (stereo not drawn)	45.5	> 100	> 100	> 100	> 100	41.5	> 100	39.6	> 100			> 100
N#Cc1c(Cl)cccc1Oc1ccc(S(=O)(=O)/N=C(\NO)Nc2ccc(Cl)cc2)cc1	34.9	30.7	26.5	34.1	71.1	31.2	30.6	31	33.1	78.2	53.6	
[N-]=[N+]=NC1(c2ccccc2)C(=O)c2cccc3c4ccccc4n(c23)C1=O (stereo not drawn)	> 100	> 100	> 100	> 100	> 100	> 100	> 100	> 100	> 100			> 100
O=[N+]([O-])/C(C(Cl)=C(Cl)Cl)=C(\Nc1cccc2cccnc12)Sc1ccccc1	> 100		49.7	34.4	38	28.6	80.5		54.2		84.5	> 100

Structure (SMILES)	TGI [1] [µM]	TGI [2] [µM]	TGI [3] [µM]	TGI [4] [µM]	TGI [5] [µM]	TGI [6] [µM]	TGI [7] [µM]	TGI [8] [µM]	TGI [9] [µM]	TGI [10] [µM]	TGI [11] [µM]	TGI [12] [µM]
Nc1nc([O-])c([I+]c2ccccc2)c(=O)[nH]1	> 100	> 100	> 100	> 100	> 100	> 100	> 100	> 100	> 100	> 100	> 100	
Nc1c(O)c2c(c(O)c1Cl)C(=O)C=CC2=O	11.4	37	25.5	> 36.8	37.1	13.3	14.8	2.04	15.8		> 60.6	> 60.7
Nc1ccc2c(c1)N(C(=O)CCCC(=O)N1CC(CCl)c3ccc(N)cc31)CC2CCl (stereo not drawn)	> 41.3	> 48.1	> 29.7	> 14.6	1.94	3.99	16.4	0.689	> 26.2		> 15.8	48.6
C=C[C@@]1(C)CC(=O)[C@]2(O)[C@@]3(C)[C@@H](OC(C)=O)CCC(C)(C)[C@@H]3[C@H](O)[C@H](OC(C)=O)[C@@]2(C)O1	> 100		> 100	> 100		> 100	> 100		> 100	> 100	> 100	> 100
Cc1ccc(-n2nnc3c(NNc4ccccc4)n[nH]c(=O)c32)cc1	> 100	75.4	> 100	> 100		> 100	> 100	> 100	> 100	> 100	> 100	
CC1=CC(=C(c2ccc(N)c(C)c2)c2ccc(N)c(C)c2)C=CC1=N	> 84.4	> 66.2	21.1	> 61.4		12.8		5.75	12.8	18.3	22.5	30.4
N#Cc1cccc(Nc2ccccc2SSc2ccccc2Nc2cccc(C#N)c2)c1	> 21.5	> 21.5	12	> 21.5	> 14.6	16.2	13.9	17	12		> 21.5	> 21.5
CC[N+](C)(C)c1ccc(C(=C2C=CC(=[N+](C)C)C=C2)c2ccc(N(C)C)cc2)cc1	> 100	97.6	29	89.4		17.5		26.9	14	35.6	15.2	55
CCOC(=O)C12C3CCC1C2C(=O)C3 (stereo not drawn)	> 100	> 100	> 100	> 100		> 100	> 100	> 100	> 100	> 100	> 100	> 100
CC12CC(=O)OC(Cc3ccccc31)O2 (stereo not drawn)		> 100	> 100			> 100			> 100	> 100	> 100	> 100
COC1/C=C/C(C)C(C(C)C(OC)C(C)CCC(=O)C(C)C(CC(=O)O)OC)OC(=O)/C=C/C=C(\C)CC(OC)C(OC)C2=CC(=O)O[C@@H](C(C)C(OC)CC(OC)/C=C/C(C)C(O)C1)[C@H]2O (stereo partly drawn)	> 1.07	0.306	0.12	0.926		> 1.07	> 1.07	0.242	> 1.07	> 1.07	> 1.07	0.289
CCOC(=O)/C(=C\NC[C@@H](C)O)c1nc2ccccc2[nH]1	> 100	> 100	> 100	> 100		> 100		> 100		84.3		> 100
O=c1[nH]nc(Cc2ccccc2)n1N=C1CCCCC1	> 100	> 100	> 100	> 100	> 100	> 100	> 100	> 100	> 100		> 100	
CC(SC(=S)N1CCCC1)C(=O)Nc1nnc(-c2ccc(Cl)cc2)o1 (stereo not drawn)	> 100	> 100	32.9	> 100	> 100		> 100	82.8	> 100		78.7	> 100
CC(C)C(=O)CC(Sc1ccc(N)cc1)c1ccccc1 (stereo not drawn)	> 100	> 100	> 100	> 100	67.6	> 100	> 100	68.2	32.9		> 100	58.4

Reference: PubChem BioAssay (NCI)
